ChEMBL document CHEMBL3351798, “Discovery of the CCR1 antagonist, BMS-817399, for the treatment of rheumatoid arthritis” (J Med Chem, 2014)
pIC50: −log10 of the molar value. Calls of active or inactive are those of the source. No cut-off for these calls is given here.

Legend:
[1] = molecular target: T1, C-C chemokine receptor type 1 (Homo sapiens, UniProt P32246); experiment: Displacement of [125I]hMIP-1alpha from CCR1 in human PBMC
T1 sequence (P32246 whole entry): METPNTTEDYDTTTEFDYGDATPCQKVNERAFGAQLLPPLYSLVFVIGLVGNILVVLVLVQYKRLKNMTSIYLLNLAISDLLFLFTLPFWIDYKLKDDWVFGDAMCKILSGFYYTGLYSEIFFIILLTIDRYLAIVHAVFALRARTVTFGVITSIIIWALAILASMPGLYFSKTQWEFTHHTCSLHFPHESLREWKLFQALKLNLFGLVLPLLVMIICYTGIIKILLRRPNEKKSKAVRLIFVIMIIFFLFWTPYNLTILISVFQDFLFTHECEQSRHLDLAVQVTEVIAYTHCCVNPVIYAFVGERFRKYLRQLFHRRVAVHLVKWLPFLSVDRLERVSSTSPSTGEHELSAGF

[2] = molecular target: T2, C-C chemokine receptor type 1 (Mus musculus, UniProt P51675); experiment: Displacement of [125I]hMIP-1alpha from mouse CCR1
T2 sequence (P51675 whole entry): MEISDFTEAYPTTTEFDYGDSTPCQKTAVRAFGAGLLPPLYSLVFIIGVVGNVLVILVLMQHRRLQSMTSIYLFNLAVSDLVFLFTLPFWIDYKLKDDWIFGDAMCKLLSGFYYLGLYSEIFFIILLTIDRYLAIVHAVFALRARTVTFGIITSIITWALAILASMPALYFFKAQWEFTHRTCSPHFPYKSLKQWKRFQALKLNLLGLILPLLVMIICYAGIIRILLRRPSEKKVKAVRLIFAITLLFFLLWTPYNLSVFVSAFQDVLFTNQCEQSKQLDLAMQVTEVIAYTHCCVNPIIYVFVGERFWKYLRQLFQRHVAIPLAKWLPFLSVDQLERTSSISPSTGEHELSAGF

[3] = Displacement of [125I]hMIP-1alpha from rat CCR1
[4] = Displacement of [125I]hMIP-1alpha from monkey PBMC CCR1; parameters: species or system Macaca mulatta
[5] = molecular target: T3, Chemokine (C-C motif) receptor 1 (Canis lupus familiaris, UniProt Q2V0Q7); experiment: Displacement of [125I]hMIP-1alpha from dog PBMC CCR1
T3 sequence (Q2V0Q7 whole entry): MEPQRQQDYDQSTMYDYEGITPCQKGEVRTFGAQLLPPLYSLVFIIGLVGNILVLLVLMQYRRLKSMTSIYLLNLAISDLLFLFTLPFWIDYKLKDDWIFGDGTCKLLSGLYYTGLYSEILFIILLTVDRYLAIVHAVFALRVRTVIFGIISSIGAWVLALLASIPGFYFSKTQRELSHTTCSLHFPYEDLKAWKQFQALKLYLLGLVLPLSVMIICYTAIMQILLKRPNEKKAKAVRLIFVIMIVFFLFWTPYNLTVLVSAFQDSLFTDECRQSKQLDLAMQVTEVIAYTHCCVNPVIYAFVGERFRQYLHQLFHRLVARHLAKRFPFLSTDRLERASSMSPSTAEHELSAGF

[6] = Metabolic stability in human liver microsomes assessed as compound remaining at 0.5 uM after 60 mins by UV-LC/MS analysis; format: ADME; conditions: read-out: Stability
[7] = Metabolic stability in mouse liver microsomes assessed as compound remaining at 0.5 uM after 60 mins by UV-LC/MS analysis; format: ADME; conditions: read-out: Stability
[8] = molecular target: T1, C-C chemokine receptor type 1; experiment: Antagonist activity at CCR1 receptor in human whole blood assessed as blocked of MIP-1alpha-mediated CD11b upregulation preincubated for 1 hr
[9] = molecular target: T1, C-C chemokine receptor type 1; experiment: Antagonist activity at CCR1 receptor in human whole blood assessed as blocked of LKN1-mediated CD11b upregulation preincubated for 1 hr
[10] = Bioavailability in mouse at 5 mg/kg; format: ADME, organism-based; conditions: in vivo
[11] = Bioavailability in rat at 5 mg/kg; format: ADME, organism-based; conditions: in vivo
[12] = Bioavailability in cynomolgus monkey at 5 mg/kg; format: ADME, organism-based, Macaca fascicularis; conditions: in vivo
[13] = Unbound fraction in human serum; format: ADME, cell-free
[14] = molecular target: T4, C-C chemokine receptor type 3 (Homo sapiens) (UniProt P51677); experiment: Binding affinity to CCR3 receptor (unknown origin)
T4 sequence (whole entry): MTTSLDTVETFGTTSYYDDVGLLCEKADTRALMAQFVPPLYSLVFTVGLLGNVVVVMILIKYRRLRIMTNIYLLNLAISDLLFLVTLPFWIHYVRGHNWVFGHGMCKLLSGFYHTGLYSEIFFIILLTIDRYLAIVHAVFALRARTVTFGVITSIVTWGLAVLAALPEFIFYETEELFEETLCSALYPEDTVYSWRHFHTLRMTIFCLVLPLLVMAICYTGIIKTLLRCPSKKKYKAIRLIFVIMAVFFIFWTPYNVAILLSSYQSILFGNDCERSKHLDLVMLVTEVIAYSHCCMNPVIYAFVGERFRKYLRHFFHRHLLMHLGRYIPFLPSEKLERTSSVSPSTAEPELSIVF

[15] = molecular target: C-C chemokine receptor type 5 (Homo sapiens) (UniProt P51681); experiment: Binding affinity to CCR5 receptor (unknown origin)
[16] = molecular target: T5, C-X-C chemokine receptor type 2 (Homo sapiens) (UniProt P25025); experiment: Binding affinity to CXCR2 receptor (unknown origin)
T5 sequence (whole entry): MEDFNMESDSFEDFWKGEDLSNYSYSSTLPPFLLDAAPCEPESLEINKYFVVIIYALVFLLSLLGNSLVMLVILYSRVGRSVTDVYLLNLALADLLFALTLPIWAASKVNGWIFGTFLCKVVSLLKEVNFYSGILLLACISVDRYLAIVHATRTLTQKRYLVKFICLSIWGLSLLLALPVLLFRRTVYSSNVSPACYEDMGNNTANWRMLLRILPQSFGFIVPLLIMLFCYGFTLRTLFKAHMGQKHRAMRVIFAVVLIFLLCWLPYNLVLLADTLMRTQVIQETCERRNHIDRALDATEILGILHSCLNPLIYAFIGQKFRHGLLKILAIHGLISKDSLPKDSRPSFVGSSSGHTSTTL

[17] = molecular target: T6, C-X-C chemokine receptor type 3 (Homo sapiens) (UniProt P49682); experiment: Binding affinity to CXCR3 receptor (unknown origin)
T6 sequence (whole entry): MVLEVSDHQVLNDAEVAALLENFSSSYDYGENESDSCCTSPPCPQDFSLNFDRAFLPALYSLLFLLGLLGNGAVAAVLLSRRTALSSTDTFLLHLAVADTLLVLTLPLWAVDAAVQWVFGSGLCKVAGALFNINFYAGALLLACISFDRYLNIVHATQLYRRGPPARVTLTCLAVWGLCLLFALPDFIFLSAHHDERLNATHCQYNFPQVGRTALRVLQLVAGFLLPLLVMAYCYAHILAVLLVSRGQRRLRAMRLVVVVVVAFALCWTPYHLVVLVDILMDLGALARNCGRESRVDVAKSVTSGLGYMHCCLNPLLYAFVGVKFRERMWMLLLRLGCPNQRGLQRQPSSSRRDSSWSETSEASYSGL

C-C chemokine receptor type 5 (Homo sapiens), sequence (P51681 whole entry, looked up): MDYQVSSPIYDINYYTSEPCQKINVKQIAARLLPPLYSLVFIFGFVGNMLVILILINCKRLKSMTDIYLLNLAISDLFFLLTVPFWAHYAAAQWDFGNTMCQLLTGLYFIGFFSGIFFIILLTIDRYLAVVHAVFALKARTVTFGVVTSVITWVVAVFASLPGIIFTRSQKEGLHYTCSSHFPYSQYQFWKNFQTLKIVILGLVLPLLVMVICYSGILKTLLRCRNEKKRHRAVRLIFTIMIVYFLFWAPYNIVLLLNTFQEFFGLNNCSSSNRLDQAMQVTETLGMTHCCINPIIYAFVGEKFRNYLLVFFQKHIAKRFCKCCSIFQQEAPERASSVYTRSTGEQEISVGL

CC(C)[C@@H](NC(=O)NCC(C)(C)O)C(=O)N1CC[C@](O)(c2ccc(Cl)cc2)C(C)(C)C1 [BMS-817399]
pIC50 [1]: 8.38 | pIC50 [2]: < 4.30 | pIC50 [3]: < 4.30 | pIC50 [4]: < 4.30 | pIC50 [5]: 6.20 | remaining at 1 h, 0.5 µM [6]: 100% | remaining at 1 h, 0.5 µM [7]: 86% | pIC50 [8]: 7.60 | pIC50 [9]: 7.38 | bioavailability [10]: 79% | bioavailability [11]: 46% | bioavailability [12]: 40% | fraction unbound [13]: 0.19 | Activity [14]: inactive | Activity [15]: inactive | Activity [16]: inactive | Activity [17]: inactive
